Experimental data taken from ChEMBL document CHEMBL1201862, “PubChem BioAssay data set” (2004).
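Exposure lasted 48 hours, with cells grown in 96-well plates and compounds tested at five concentrations. The concentration for 50% growth inhibition is given as GI50.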 Activity calls are given as the source filed them. Cut-off read from the data, not from the text of the source: active = GI50 up to about 1.1 µM and inactive = higher.

Key:
Assay in all cases: inhibition of tumour cell growth, NCI panel, 48 h
A498 = test system: A498
BT-549 = test system: BT-549
CAKI-1 = test system: CAKI-1
CCRF-CEM = test system: CCRF-CEM
COLO 205 = test system: COLO 205
EKVX = test system: EKVX
HCC 2998 = test system: HCC 2998
IGROV-1 = test system: IGROV-1
MDA-MB-435 = test system: MDA-MB-435
NCI-H226 = test system: NCI-H226
NCI/ADR-RES = test system: NCI/ADR-RES
PC-3 = test system: PC-3
RPMI-8226 = test system: RPMI-8226
RXF 393 = test system: RXF 393
SNB-19 = test system: SNB-19
A549 = test system: A549
Malme-3M = test system: Malme-3M
OVCAR-3 = test system: OVCAR-3
OVCAR-5 = test system: OVCAR-5

SMILES | GI50 (A498) | GI50 (BT-549) | GI50 (CAKI-1) | GI50 (CCRF-CEM) | GI50 (COLO 205) | GI50 (EKVX) | GI50 (HCC 2998) | GI50 (IGROV-1) | GI50 (MDA-MB-435) | GI50 (NCI-H226) | GI50 (NCI/ADR-RES) | GI50 (PC-3) | GI50 (RPMI-8226) | GI50 (RXF 393) | GI50 (SNB-19) | GI50 (A549) | GI50 (Malme-3M) | GI50 (OVCAR-3) | GI50 (OVCAR-5)
CCOC(=O)C(C)c1nc2cc3cccnc3c(Cl)c2[nH]c1=O (centres undefined) | > 100 µM (inactive) | > 100 µM (inactive) | > 100 µM (inactive) | > 100 µM (inactive) | > 100 µM (inactive) | > 100 µM (inactive) | 85.3 µM (inactive) | 52.6 µM (inactive) | > 100 µM (inactive) | > 100 µM (inactive) | > 100 µM (inactive) | > 100 µM (inactive) | 25.9 µM (inactive) | > 100 µM (inactive) | > 100 µM (inactive) |  |  |  | 
CC(Oc1ccccc1Cl)C(=O)NN1C(=O)CC(=O)N(c2ccccc2)C1=S (centres undefined) | 22.3 µM (inactive) | 54.1 µM (inactive) | 41.2 µM (inactive) |  | 32.2 µM (inactive) | 57.1 µM (inactive) | 82.2 µM (inactive) | 52.6 µM (inactive) | 42.6 µM (inactive) | 38.6 µM (inactive) | 38.5 µM (inactive) | 40.8 µM (inactive) | 47.8 µM (inactive) | 32.1 µM (inactive) | 71.1 µM (inactive) | 41.1 µM (inactive) | > 100 µM (inactive) | 38 µM (inactive) | > 100 µM (inactive)
COc1cccc2c(=O)oc(-c3ccc(C(C)(C)C)cc3)nc12 | > 100 µM (inactive) | 44 µM (inactive) | 35.8 µM (inactive) | 33.7 µM (inactive) | 57 µM (inactive) | 63.7 µM (inactive) | 0.447 µM (active) | 45.1 µM (inactive) | 59.7 µM (inactive) |  | 54.8 µM (inactive) | > 100 µM (inactive) | 34.3 µM (inactive) | 49.3 µM (inactive) | > 100 µM (inactive) | 85.1 µM (inactive) | > 100 µM (inactive) | 29.9 µM (inactive) | > 100 µM (inactive)
COC(=O)/C(C#N)=C(/NCCN)Nc1ccccc1 | > 100 µM (inactive) | > 100 µM (inactive) | > 100 µM (inactive) |  | > 100 µM (inactive) | > 100 µM (inactive) | > 100 µM (inactive) | > 100 µM (inactive) | > 100 µM (inactive) | > 100 µM (inactive) | > 100 µM (inactive) | > 100 µM (inactive) | > 100 µM (inactive) | > 100 µM (inactive) | > 100 µM (inactive) | > 100 µM (inactive) | > 100 µM (inactive) | > 100 µM (inactive) | > 100 µM (inactive)
CC(=O)C(C(=O)c1ccc(C)cc1)[C@H]1OC(C)(C)O[C@H]1[C@H]1COC(C)(C)O1 (some centres undefined) | 7.55 µM (inactive) | 6.3 µM (inactive) | 5.38 µM (inactive) |  | 10.3 µM (inactive) | 5.32 µM (inactive) | 7.24 µM (inactive) | 3.17 µM (inactive) | 2.24 µM (inactive) | 14.5 µM (inactive) | 4.54 µM (inactive) | 2.55 µM (inactive) | 1.6 µM (inactive) | 2.69 µM (inactive) | 9.95 µM (inactive) | 11.2 µM (inactive) | 6.92 µM (inactive) |  | 8.39 µM (inactive)
Cc1ccc(NC(=O)c2cc(S(=O)(=O)Nc3n[nH]c(=O)n3-c3ccccc3)c(S)cc2Cl)cc1 | > 100 µM (inactive) | > 100 µM (inactive) | > 100 µM (inactive) |  | > 100 µM (inactive) | > 100 µM (inactive) | > 100 µM (inactive) | > 100 µM (inactive) | > 100 µM (inactive) | > 100 µM (inactive) | > 100 µM (inactive) | > 100 µM (inactive) | > 100 µM (inactive) | > 100 µM (inactive) | > 100 µM (inactive) | > 100 µM (inactive) | > 100 µM (inactive) | > 100 µM (inactive) | > 100 µM (inactive)
Cc1ccc(Cc2n[nH]c(=O)n2-c2ccccc2)cc1 | 37.5 µM (inactive) | > 100 µM (inactive) | > 100 µM (inactive) |  |  |  | > 100 µM (inactive) | > 100 µM (inactive) | > 100 µM (inactive) | > 100 µM (inactive) | > 100 µM (inactive) | > 100 µM (inactive) | 36.1 µM (inactive) | 20.2 µM (inactive) | > 100 µM (inactive) | > 100 µM (inactive) | > 100 µM (inactive) |  | > 100 µM (inactive)
O=c1c(Cc2ccc(Cl)cc2)nnc2sc(-c3ccc(-c4ccc(F)c(Cl)c4)o3)nn12 | 42.2 µM (inactive) | 78.2 µM (inactive) | 43 µM (inactive) | 45.7 µM (inactive) | 57.3 µM (inactive) | 24.5 µM (inactive) | > 100 µM (inactive) | 72.3 µM (inactive) | 82 µM (inactive) | > 100 µM (inactive) | 56.9 µM (inactive) | 57.1 µM (inactive) | > 100 µM (inactive) | > 100 µM (inactive) | > 100 µM (inactive) | 51.3 µM (inactive) | > 100 µM (inactive) |  | 56.1 µM (inactive)
CN(C)c1ncc(-c2c[nH]c3ccccc23)nc1-c1c[nH]c2ccccc12 | 2.14 µM (inactive) | 13.8 µM (inactive) | 3.47 µM (inactive) |  | 2.3 µM (inactive) | 3.32 µM (inactive) | 1.67 µM (inactive) | 3.24 µM (inactive) | 3.31 µM (inactive) |  | 9.95 µM (inactive) | 3.69 µM (inactive) | 2.74 µM (inactive) | 1.96 µM (inactive) | 4.12 µM (inactive) | 3.33 µM (inactive) |  | 5.75 µM (inactive) | 4.68 µM (inactive)
CC(=O)Oc1ccc(/C=C/C(=O)O[C@@H](C(=O)O)[C@@H](OC(=O)/C=C/c2ccc(OC(C)=O)c(OC(C)=O)c2)C(=O)O)cc1OC(C)=O | > 100 µM (inactive) | > 100 µM (inactive) | > 100 µM (inactive) | > 100 µM (inactive) | > 100 µM (inactive) | > 100 µM (inactive) | > 100 µM (inactive) | > 100 µM (inactive) | > 100 µM (inactive) |  | > 100 µM (inactive) | > 100 µM (inactive) | > 100 µM (inactive) | > 100 µM (inactive) | > 100 µM (inactive) | > 100 µM (inactive) | > 100 µM (inactive) | > 100 µM (inactive) | > 100 µM (inactive)
Clc1ccc(CCN2CCN(CCCc3ccccc3)CC2)cc1Cl | 15.8 µM (inactive) | 15.8 µM (inactive) | 17.1 µM (inactive) | 33.3 µM (inactive) | 15.4 µM (inactive) | 17.4 µM (inactive) | 17 µM (inactive) | 17 µM (inactive) | 17.3 µM (inactive) | 20.1 µM (inactive) | 14.7 µM (inactive) | 17.7 µM (inactive) | 20.9 µM (inactive) |  | 16.6 µM (inactive) | 15.9 µM (inactive) | 19.1 µM (inactive) | 16.4 µM (inactive) | 16.2 µM (inactive)
